The target in one data set is hNav1.5 (Homo sapiens (Human), UniProt Q14524). Briefly: hNav1.5 Sodium Channel Assay (peak), Qube APC. The format is cell-based. The settings on record: Nav1.5, Antagonist mode, test compound. How it is done: (§1) Where presented, IC50 values were determined by a non-linear, least squares regression analysis.
(§2) Recombinant HEK-293 cells stably transfected with human Nav1.5 cDNA, recombinant HEK293 cell line expressing the human Cav1.2 (L-type voltage gated calcium channel, hCav1.2 α1C/β2a/α2δ1, and recombinant CHO-K1 cells stably transfected with human hERG cDNA were used separately in each of these assays.
hNav1.5 Sodium Channel Assay—Qube APC Onset and steady state block of peak Nav1.5 current is measured using a pulse pattern, repeated every 5 sec, consisting of a hyperpolarizing pulse to −120 mV for a 200 ms duration, depolarization to −15 mV amplitude for a 40 ms duration, followed by step to 40 mV for 200 ms and finally a 100 ms ramp (1.2 V/s) to a holding potential of −80 mV. Peak current is measured during the step to −15 mV.

In a further data set the target is DAT (Rattus norvegicus (Rat), UniProt P23977). Briefly: DA release study. The format is biochemical.
In data set [1] the test system is NET. Briefly: [3H]Norepinephrine uptake inhibition in rat brain synaptosomes. The format is biochemical. As to conditions: NE. How it is done: Materials used were: Neurotransmitters [3H]5-HT (PerkinElmer, NET498001MC) [^3H]Dopamine (PerkinElmer, NET673250UC) [^3H]Norepinephrine (PerkinElmer, NET377250UC); Test Compounds Racemic methylone HCl (Merck, M-140); (R)-methylone HCl (Pisgah Labs); (S)-methylone HCl (Pisgah Labs); Reference Compounds Citalopram (Tocris Bioscience 1427). JHW007 (Tocris Bioscience 4351). Nomifensine (Abcam ab146004).
Synaptosomes were prepared from Sprague Dawley (200-250 g) rat brain regions (hippocampus for NE, striatum for DA and midbrain for 5-HT) using standard protocols. Tissues were dissected, added to sucrose buffer (0.32 M), homogenized with a dounce-homogenizer and centrifuged at 100×g to remove cells and debris. Supernatant was collected and centrifuged 17,000×g for 10 minutes at 4° C. to pellet the synaptosomes. The pellet was resuspended in fresh assay buffer.
Uptake assays were carried out in 96-well plates in a final volume of 250 μL per well. To each well was added 150 μL synaptosomes, 50 μL test, non-specific compound or buffer alone. The plate was incubated at 30° C. for 30 minutes with gentle agitation. 50 μL radiolabeled neurotransmitter in buffer was then added to each well to initiate the uptake. The plate was incubated at 30° C. for a further 5 minutes with gentle agitation. The incubation was stopped by vacuum filtration onto presoaked GF/C filters using a 96-well FilterMate™ harvester, followed by 3 washes with ice-cold wash buffer. Filters were then dried under a warm air stream, sealed in polyethylene, scintillation cocktail added, and the radioactivity counted in a Wallac® TriLux 1450 MicroBeta counter.
For each concentration of drug, non-specific uptake was subtracted from total uptake to give specific uptake. Data was fitted using the non-linear curve fitting routines in Prism® (Graphpad Software Inc) to determine IC50.

The next data set addresses hERG (Homo sapiens (Human), UniProt Q12809). Briefly: hERG Potassium Channel Assay, Qube APC. The format is cell-based. The settings on record: Antagonist mode, test compound. The protocol: as §1, §2
hERG Potassium Channel Assay—Qube APC After whole cell configuration is achieved, the cells are held at −80 mV. Cells are held at this voltage for 50 ms to measure the leak current, which is subtracted from the tail current on-line. The cells are depolarized to +40 mV for 500 ms and then to −80 mV over a 100 ms ramp to elicit the hERG tail current. This paradigm is delivered once every 8 s to monitor the current amplitude.
(In general: The hERG channel carries a current that helps repolarise heart muscle cells.)

In another data set the target is hCav1.2 (Homo sapiens (Human), UniProt Q13936). The data set can be described thus: hCav1.2 (L-type) Calcium Channel Assay, Qube APC. The format is cell-based. As to conditions: Cav1.2, Antagonist mode, test compound. How it is done:
as §1, §2
hCav1.2 (L-type) Calcium Channel Assay—Qube APC After whole cell configuration is achieved, the cells are held at −90 mV. Cav1.2 currents are evoked by a 50 ms pulse to −100 mV followed by a 200 ms pulse to +20 mV before returning to the holding potential of −90 mV. This paradigm is delivered three times every 60 s to monitor the current amplitude.

The target of the next data set is hNav1.5 Late Current (Homo sapiens (Human), UniProt Q14524). Briefly: hNav1.5 Late Current Sodium Channel Assay, Qube APC. The format is cell-based. As to conditions: Nav1.5 Late Current, Antagonist mode, test compound. The protocol:
(§3) Electrophysiological assays were conducted to profile three compounds ((R)-methylone, (S)-methylone, or racemic methylone) for activities on the ion channel targets specified below using the Qube electrophysiological platform. Where presented, IC50 values were determined by a non-linear, least squares regression analysis. Reference standards were run as an integral part of each assay to ensure the validity of the results obtained.
(§4) Ion Channels tested were Eurofins Panel Part Number: CPROFullQB2DR Voltage-Gated Sodium: HEK-Nav1.5 (Peak), HEK-Nav1.5 (Late, Antagonist) Voltage-Gated Potassium: HEK-Kv4.3/KChIP2, CHO-hERG, CHO-KCNQ1/minK Voltage-Gated Calcium: HEK-Cav1.2 Inward-Rectifying Voltage-Gated Potassium: HEK-Kir2.1.
hNav1.5 Late Current Sodium Channel Assay—Qube APC Onset and steady state block of Late Nav1.5 current is measured using a pulse pattern, repeated every 5 sec, consisting of a hyperpolarizing pulse to −120 mV for a 200 ms duration, depolarization to −15 mV amplitude for a 40 ms duration, followed by step to 40 mV for 200 ms and finally a 100 ms ramp (1.2 V/s) to a holding potential of −80 mV. Late current is measured as charge current elicited during the ramp with 50 nM ATXII.

For data set [2], the system named is NET. The data set can be described thus: NE release study. The format is biochemical.
The next data set deals with hKv4.3/hKChIP2 (Homo sapiens (Human), UniProt Q9UK17). Briefly: hKv4.3/hKChIP2 Potassium Channel Assay, Qube APC. The format is cell-based. As to conditions: Kc4.3/ChIP2, Antagonist mode, test compound. How it is done:
as §3, §4
hKv4.3/hKChIP2 Potassium Channel Assay—Qube APC After whole cell configuration is achieved, the cells are held at −80 mV. Onset and steady state block of hKv4.3 current is measured using a pulse pattern from −80 mV to 40 mV amplitude for a 110 ms duration, and finally a 100 ms ramp (1.2 V/s) to −80 mV. This paradigm is delivered once every 5 s to monitor the current amplitude.

The subject of a further data set is cardiac ion channels. Briefly: In vitro cardiovascular safety screening test (ion channel panel, overall). The format is cell-based, human. The settings on record: whole panel. How it is done: An in vitro cardiovascular safety screening test was run to investigate the effects of racemic methylone and two methylone stereoisomers ((R)-methylone and (S)-methylone) on selected ion channels critically linked to cardiovascular function and activity.
as §3, §4

Chain of hCav1.2 (Q13936 whole entry, looked up): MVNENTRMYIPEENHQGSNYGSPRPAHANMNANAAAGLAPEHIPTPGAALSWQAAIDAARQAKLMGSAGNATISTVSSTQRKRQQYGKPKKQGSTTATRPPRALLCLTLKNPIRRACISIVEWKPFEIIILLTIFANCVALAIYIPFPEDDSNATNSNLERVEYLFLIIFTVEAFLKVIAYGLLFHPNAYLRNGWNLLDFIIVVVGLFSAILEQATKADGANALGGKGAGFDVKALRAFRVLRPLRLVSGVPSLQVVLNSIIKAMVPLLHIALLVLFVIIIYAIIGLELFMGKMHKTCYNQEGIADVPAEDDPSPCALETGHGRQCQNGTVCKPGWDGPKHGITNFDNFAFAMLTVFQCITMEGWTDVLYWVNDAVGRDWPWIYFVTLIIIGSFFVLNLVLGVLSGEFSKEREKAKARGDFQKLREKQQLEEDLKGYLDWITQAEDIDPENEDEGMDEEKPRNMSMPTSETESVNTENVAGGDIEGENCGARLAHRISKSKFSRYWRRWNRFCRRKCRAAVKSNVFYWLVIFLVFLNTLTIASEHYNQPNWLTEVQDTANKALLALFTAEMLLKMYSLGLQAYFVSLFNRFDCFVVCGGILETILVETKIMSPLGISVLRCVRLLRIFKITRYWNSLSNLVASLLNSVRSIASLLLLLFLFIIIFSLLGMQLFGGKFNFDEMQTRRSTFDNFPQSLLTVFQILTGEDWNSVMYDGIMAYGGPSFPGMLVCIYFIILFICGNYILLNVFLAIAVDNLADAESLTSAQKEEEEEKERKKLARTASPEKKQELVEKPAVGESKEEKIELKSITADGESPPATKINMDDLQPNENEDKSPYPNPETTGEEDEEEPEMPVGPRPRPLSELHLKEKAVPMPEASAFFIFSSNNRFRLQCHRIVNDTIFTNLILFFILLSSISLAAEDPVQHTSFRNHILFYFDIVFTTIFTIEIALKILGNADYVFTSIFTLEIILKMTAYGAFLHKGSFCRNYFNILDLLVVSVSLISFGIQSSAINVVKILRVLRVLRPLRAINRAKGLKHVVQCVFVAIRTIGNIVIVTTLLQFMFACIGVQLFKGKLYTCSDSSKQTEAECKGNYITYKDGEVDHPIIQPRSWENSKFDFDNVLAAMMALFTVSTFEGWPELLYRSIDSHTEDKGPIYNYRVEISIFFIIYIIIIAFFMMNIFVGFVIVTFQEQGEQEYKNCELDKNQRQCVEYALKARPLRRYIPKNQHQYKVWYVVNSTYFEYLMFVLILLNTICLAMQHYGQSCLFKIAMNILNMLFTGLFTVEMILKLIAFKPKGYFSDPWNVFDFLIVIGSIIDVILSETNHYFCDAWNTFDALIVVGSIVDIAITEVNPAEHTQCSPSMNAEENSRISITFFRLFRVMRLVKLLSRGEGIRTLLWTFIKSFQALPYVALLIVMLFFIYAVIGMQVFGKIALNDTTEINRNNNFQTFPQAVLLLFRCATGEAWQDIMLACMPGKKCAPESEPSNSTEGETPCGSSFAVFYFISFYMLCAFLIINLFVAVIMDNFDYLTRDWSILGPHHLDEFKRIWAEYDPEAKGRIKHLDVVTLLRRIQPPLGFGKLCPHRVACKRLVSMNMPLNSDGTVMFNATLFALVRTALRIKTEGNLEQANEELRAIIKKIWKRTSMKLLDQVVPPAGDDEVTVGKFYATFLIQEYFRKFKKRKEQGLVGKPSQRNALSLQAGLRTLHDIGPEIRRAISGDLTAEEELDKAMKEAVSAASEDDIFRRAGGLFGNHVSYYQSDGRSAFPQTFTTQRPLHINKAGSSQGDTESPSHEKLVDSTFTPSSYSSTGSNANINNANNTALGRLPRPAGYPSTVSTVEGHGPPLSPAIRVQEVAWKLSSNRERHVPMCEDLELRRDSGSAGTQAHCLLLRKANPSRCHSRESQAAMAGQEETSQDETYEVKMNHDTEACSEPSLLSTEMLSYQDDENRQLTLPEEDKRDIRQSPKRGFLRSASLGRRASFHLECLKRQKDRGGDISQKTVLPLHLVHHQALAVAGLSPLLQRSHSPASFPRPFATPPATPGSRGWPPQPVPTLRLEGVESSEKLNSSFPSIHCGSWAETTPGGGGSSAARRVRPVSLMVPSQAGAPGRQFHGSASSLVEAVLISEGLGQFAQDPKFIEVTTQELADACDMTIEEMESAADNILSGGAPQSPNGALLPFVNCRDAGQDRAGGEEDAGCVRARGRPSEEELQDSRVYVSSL
Chain of hCav1.2 (Q08289 whole entry partner, looked up): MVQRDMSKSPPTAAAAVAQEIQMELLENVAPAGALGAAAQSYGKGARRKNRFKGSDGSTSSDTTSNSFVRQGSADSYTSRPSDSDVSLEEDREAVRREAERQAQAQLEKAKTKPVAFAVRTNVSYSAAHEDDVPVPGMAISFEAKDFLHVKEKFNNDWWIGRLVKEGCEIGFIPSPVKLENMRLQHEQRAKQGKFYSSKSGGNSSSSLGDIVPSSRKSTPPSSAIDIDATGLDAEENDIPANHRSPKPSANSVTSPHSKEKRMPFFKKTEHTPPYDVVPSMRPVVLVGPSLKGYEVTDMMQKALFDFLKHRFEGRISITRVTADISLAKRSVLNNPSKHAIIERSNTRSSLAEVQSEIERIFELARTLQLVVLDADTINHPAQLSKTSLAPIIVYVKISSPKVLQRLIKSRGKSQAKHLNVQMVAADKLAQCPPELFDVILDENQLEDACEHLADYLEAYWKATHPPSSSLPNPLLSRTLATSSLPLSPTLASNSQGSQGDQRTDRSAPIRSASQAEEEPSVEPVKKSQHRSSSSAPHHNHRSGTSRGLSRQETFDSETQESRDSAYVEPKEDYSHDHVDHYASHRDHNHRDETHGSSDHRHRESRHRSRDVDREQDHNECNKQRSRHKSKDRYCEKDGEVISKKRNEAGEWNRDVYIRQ
Chain of hCav1.2 (P54289 whole entry partner, looked up): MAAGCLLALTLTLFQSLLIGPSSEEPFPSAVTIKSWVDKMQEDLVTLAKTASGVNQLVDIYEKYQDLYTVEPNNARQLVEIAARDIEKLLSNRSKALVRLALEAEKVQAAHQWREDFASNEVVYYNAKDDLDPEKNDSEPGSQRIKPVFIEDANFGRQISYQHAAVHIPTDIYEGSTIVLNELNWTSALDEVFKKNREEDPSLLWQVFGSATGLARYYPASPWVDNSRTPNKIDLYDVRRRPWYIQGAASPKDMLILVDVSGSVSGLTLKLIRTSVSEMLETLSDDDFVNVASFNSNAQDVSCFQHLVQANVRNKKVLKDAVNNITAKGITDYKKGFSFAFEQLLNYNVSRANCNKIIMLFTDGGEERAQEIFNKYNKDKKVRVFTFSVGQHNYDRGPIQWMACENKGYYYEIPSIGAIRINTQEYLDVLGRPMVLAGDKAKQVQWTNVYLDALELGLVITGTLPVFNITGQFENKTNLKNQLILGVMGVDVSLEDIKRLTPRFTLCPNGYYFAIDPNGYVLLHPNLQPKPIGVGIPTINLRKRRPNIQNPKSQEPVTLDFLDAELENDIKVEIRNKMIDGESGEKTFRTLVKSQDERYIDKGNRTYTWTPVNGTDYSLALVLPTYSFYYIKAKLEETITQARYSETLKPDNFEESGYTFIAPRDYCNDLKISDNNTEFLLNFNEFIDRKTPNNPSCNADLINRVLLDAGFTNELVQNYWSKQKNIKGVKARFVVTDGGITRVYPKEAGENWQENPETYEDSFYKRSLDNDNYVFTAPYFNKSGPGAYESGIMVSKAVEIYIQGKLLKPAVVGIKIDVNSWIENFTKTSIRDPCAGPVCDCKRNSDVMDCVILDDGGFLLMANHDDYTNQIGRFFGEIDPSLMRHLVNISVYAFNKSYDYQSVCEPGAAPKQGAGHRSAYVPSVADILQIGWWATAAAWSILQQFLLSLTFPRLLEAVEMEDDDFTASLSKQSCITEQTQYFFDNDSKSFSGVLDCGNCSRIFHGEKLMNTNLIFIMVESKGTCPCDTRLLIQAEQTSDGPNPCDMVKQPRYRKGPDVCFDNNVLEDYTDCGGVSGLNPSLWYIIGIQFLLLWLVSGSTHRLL
Chain of hCav1.2 (P54289 whole entry partner, looked up): as above

Take `CN[C@H](C)C(=O)c1ccc2c(c1)OCO2` [(R)-methylone]: the “Estimated IC50” value on hNav1.5, at hERG, on hCav1.2, at hNav1.5 Late Current and on hKv4.3/hKChIP2 was “N/C (N/C indicates observed mean inhibition was <25%)” in each case. Further, the values for the EC50 on DAT and in the data set with NET [2] were 4770 nM and 191 nM, respectively. In the data set with NET [1], this compound yielded a concentration for half-maximal inhibition (IC50) of 242 nM. The “Effect on the cardiac ion channels tested” value in the data set with cardiac ion channels is reported as “do not directly inhibit the activity of cardiac channels”.
Consider `CN[C@@H](C)C(=O)c1ccc2c(c1)OCO2` [(S)-methylone], for which the “Estimated IC50” value on hNav1.5, at hERG, on hCav1.2, at hNav1.5 Late Current and at hKv4.3/hKChIP2 was “N/C (N/C indicates observed mean inhibition was <25%)” each time. Moreover, the EC50 on DAT turned out to be 3280 nM; in the data set with NET [2], 760 nM. It took 316 nM to reach half-maximal inhibition in the data set on NET [1] (IC50). For the same compound, the “Effect on the cardiac ion channels tested” value with cardiac ion channels was “do not directly inhibit the activity of cardiac channels”.

The EC50 is the midpoint of the concentration-response curve. Low values mean an effect from little substance, high ones a need for much substance. One may read the IC50 as the concentration at which inhibition is half-maximal. Read a high IC50 as lower potency.

These data come from patent US20240327372A1, “PREPARATION OF PHENE[…] […] STEREOISOMERS THEREOF AND PRECURSORS THEREOF” (priority 2022, published 2024).
